Reference: patent publication US11951214B2, “Capsule formulations” (CHEMOCENTRYX, INC., priority 2018, dated 2024)
In brackets after ≈: the same amount, converted by molar mass. Where two headings read alike, the source gives them in different places.

Assay: Solubility of Compound 1 in alternative excipients/solvents (liquid formulations, cranberry juice dilution)
Type: physicochemical
Procedure: Liquid formulations of PEG400/EtOH and Compound 1 can be prepared using general methods for making liquid formulations known in the art. For example, Compound 1 was dissolved in EtOH with agitation and ambient temperature, then the desired amount of PEG400 was added to achieve the desired ratios.
The liquid formulations of the present example are prepared as described in Example 2. When additional excipients are included, they are added after dissolution of Compound 1 in ethanol.

solubility (Captisol in water (40% w/v), aqueous with cosolvent or surfactant or cyclodextrin, thermodynamic from solid, Captisol in water (40% w/v), read-out: Solubility): 0.01 mg/mL (≈ 0.0172 mM)
solubility (Cavitron W7 HP5 in water (40% w/v)): 0.05 mg/mL (≈ 0.086 mM)
Additional Observations (PEG400/EtOH/Cremophor EL (70/25/5 v/v), prepared 20 mg/mL formulation): A translucent solution.
solubility (PEG400/EtOH/Solutol HS 15 (50/40/10 v/v), organic solvent or mixture, thermodynamic from solid, PEG400/EtOH/Solutol HS 15 (50/40/10 v/v), visually, against 30 mg/mL control solution, read-out: Solubility): ~30 mg/mL (≈ 51.6 mM)
solubility (PEG400/EtOH/Solutol HS 15 (50/45/5 v/v), organic solvent or mixture, thermodynamic from solid, PEG400/EtOH/Solutol HS 15 (50/45/5 v/v), visually, against 30 mg/mL control solution, read-out: Solubility): ~30 mg/mL (≈ 51.6 mM)
solubility (PEG400/EtOH/Solutol HS 15 (70/20/10 v/v), organic solvent or mixture, PEG400/EtOH/Solutol HS 15 (70/20/10 v/v), read-out: Solubility): 20.4 mg/mL (≈ 35.1 mM)
Additional Observations (PEG400/EtOH/Solutol HS 15 (70/25/5 v/v), 20.0 mg/mL, in cranberry juice): Precipitate forms in cranberry juice.
solubility (PEG400/EtOH/Solutol HS 15 (70/25/5 v/v), organic solvent or mixture, PEG400/EtOH/Solutol HS 15 (70/25/5 v/v), read-out: Solubility): 20 mg/mL (≈ 34.4 mM)
solubility (PEG400/EtOH/Transcutol P (50/40/10 v/v), organic solvent or mixture, PEG400/EtOH/Transcutol P (50/40/10 v/v), second listing, read-out: Solubility): 20.2 mg/mL (≈ 34.7 mM)
solubility (PEG400/EtOH/Transcutol P (50/40/10 v/v), organic solvent or mixture, thermodynamic from solid, PEG400/EtOH/Transcutol P (50/40/10 v/v), visually, against 30 mg/mL control solution, read-out: Solubility): ~30 mg/mL (≈ 51.6 mM)
solubility (PEG400/EtOH/Transcutol P (50/45/5 v/v), organic solvent or mixture, PEG400/EtOH/Transcutol P (50/45/5 v/v), second listing, read-out: Solubility): 19.9 mg/mL (≈ 34.2 mM)
solubility (PEG400/EtOH/Transcutol P (50/45/5 v/v), organic solvent or mixture, PEG400/EtOH/Transcutol P (50/45/5 v/v), visually, against 30 mg/mL control solution, read-out: Solubility): ~30 mg/mL (≈ 51.6 mM)
solubility (PEG400/Propylene Glycol (50/50 v/v), organic solvent or mixture, PEG400/Propylene Glycol (50/50 v/v), read-out: Solubility): 10.9 mg/mL (≈ 18.7 mM)
Compound: Cc1ccc(NC(=O)[C@H]2CCCN(C(=O)c3c(C)cccc3F)[C@H]2c2ccc(NC3CCCC3)cc2)cc1C(F)(F)F [Compound 1, (2R,3 S)-2-(4-(cyclopentylamino)phenyl)-1-(2-fluoro-6-methylbenzoyl)-N-(4-methyl-3-(trifluoromethyl)phenyl)piperidine-3-carboxamide]
Additional Observations (Captisol in water (40% w/v), overnight): API undissolved overnight even with warming to 60°.
Additional Observations (Cavitron W7 HP5 in water (40% w/v), overnight): API undissolved overnight even with warming to 60°.
Additional Observations (PEG400/EtOH/Cremophor EL (50/45/5 v/v), prepared 20 mg/mL formulation): A translucent solution with floating fine particles.
Additional Observations (PEG400/EtOH/Solutol HS 15 (50/40/10 v/v), ~30 mg/mL, overnight): few API particles left overnight, did not attempt
Additional Observations (PEG400/EtOH/Solutol HS 15 (50/45/5 v/v), ~30 mg/mL, overnight): API particles left overnight, did not attempt cranberry
Additional Observations (PEG400/EtOH/Solutol HS 15 (70/20/10 v/v), 20.4 mg/mL, in cranberry juice): Slow to precipitate with addition to cranberry juice.
Additional Observations (PEG400/EtOH/Transcutol P (50/40/10 v/v), ~30 mg/mL, overnight): few API particles left overnight, did not attempt
Additional Observations (PEG400/EtOH/Transcutol P (50/45/5 v/v), ~30 mg/mL, overnight): few API particles left overnight, did not attempt
Additional Observations (PEG400/Propylene Glycol (50/50 v/v), overnight, then addition of cranberry juice): Somewhat dissolved overnight, however, precipitation
solubility in control vehicle (control solution of PEG400/EtOH (50/50% v/v) with 30 mg/mL): Compound 1 is not fully soluble in control vehicle. A few
